# Data taken from patent US9428452B2, “Compounds” (Glaxo Group Limited, priority 2012, dated 2016).
# Marks after values point to notes of the source that are not given here.
# Assays:
# IL-22 mRNA expression = test: Ex-vivo human skin model, IL-22 mRNA expression; assay type: cell-based; conditions: for Percentage of inhibition of IL-22 mRNA expression: Th17 cytokine cocktail 24 h, RT-PCR
# IL-17A mRNA expression = test: Ex-vivo human skin model, IL-17A mRNA expression; assay type: cell-based; conditions: for Percentage of inhibition of IL-17A mRNA expression: Th17 cytokine cocktail 24 h, RT-PCR
# [1] = four different donors, compound 10 μM
smiles,measurement,setting,value
"CCc1ccc(N(CC(C)C)S(=O)(=O)c2ccc([C@@H](O)CN3CCOCC3)c(CO)c2)cc1 [Example E126, N-(4-ethylphenyl)-4-(1-hydroxy-2-morpholinoethyl)-3-(hydroxymethyl)-N-isobutylbenzenesulfonamide]",Percentage of inhibition of IL-22 mRNA expression,"IL-22 mRNA expression; Skin Donor 1, compound 10 μM",67% *
same,Percentage of inhibition of IL-22 mRNA expression,"IL-22 mRNA expression; Skin Donor 2, compound 10 μM",58%
same,Percentage of inhibition of IL-22 mRNA expression,"IL-22 mRNA expression; Skin Donor 3, compound 10 μM",60%
same,Percentage of inhibition of IL-22 mRNA expression,"IL-22 mRNA expression; Skin Donor 4, compound 10 μM",58% *
same,gene transcription of il22 (result in words),IL-22 mRNA expression; [1],inhibited
same,Percentage of inhibition of IL-17A mRNA expression,"IL-17A mRNA expression; Skin Donor 1, compound 10 μM",76% *
same,Percentage of inhibition of IL-17A mRNA expression,"IL-17A mRNA expression; Skin Donor 2, compound 10 μM",93% *
same,Percentage of inhibition of IL-17A mRNA expression,"IL-17A mRNA expression; Skin Donor 3, compound 10 μM",60% *
same,Percentage of inhibition of IL-17A mRNA expression,"IL-17A mRNA expression; Skin Donor 4, compound 10 μM",85% *
same,gene transcription of il17a (result in words),IL-17A mRNA expression; [1],inhibited
